Numbers after ± are expanded uncertainties.

For the data set the following is noted: Crystal; DTA.
For `O=c1oc(-c2ccccc2)nc2ccccc12` [2-phenyl-4H-3,1-benzoxazin-4-one], the Normal melting temperature worked out at 124.00 ± 2 °C. For `CC(=O)O[C@H]1C(=O)[C@@]2(C)[C@H]([C@H](OC(=O)c3ccccc3)[C@]3(O)C[C@H](OC(=O)[C@H](O)[C@@H](NC(=O)c4ccccc4)c4ccccc4)C(C)=C1C3(C)C)[C@]1(OC(C)=O)CO[C@@H]1C[C@@H]2O` [paclitaxel], the Normal melting temperature was determined as 215.00 ± 4 °C. On to `Cc1cn([C@H]2C[C@H](O)[C@@H](CO)O2)c(=O)[nH]c1=O` [thymidine], for which the Normal melting temperature came out at 187.00 ± 2 °C.

As for `COc1ccc2cc([C@H](C)C(=O)O)ccc2c1` [(S)-(+)-naproxen], the Normal melting temperature worked out at 157.50 ± 1.1 °C. Consider `CC(C)Cc1ccc(C(C)C(=O)O)cc1` (stereo not drawn) [ibuprofen], for which the Normal melting temperature was found to be 74.50 ± 3 °C. Turning to `NC(=O)/N=N/C(N)=O` [azodicarbonamide], the Normal melting temperature was 224.50 ± 1.1 °C. Consider `O=c1[nH]cc(F)c(=O)[nH]1` [5-fluoro-2,4(1H,3H)-pyrimidinedione], for which the Normal melting temperature was 284.00 ± 4 °C. `CC(=O)Nc1ccc(O)cc1` [N-acetyl-p-aminophenol]: the Normal melting temperature was found to be 170.00 ± 4 °C.

(Values after the NIST ThermoML archive (doi:10.1021/je049551l).)
